In publication PMC11170107, “Development of a new hazard scoring system in primary neuronal cell cultures for drug-induced acute neuronal toxicity identification in early drug discovery” (Frontiers in Pharmacology, 2024):
Entries after “also recorded” stand apart in the source; their conditions may differ.

Columns and labels:
[1] = established from VigiBase, SIDER, Elsevier drug information and FDA prescribing information
[2] = Supplementary Table S1; cited from earlier work
[3] = ref National library of medicine, Daylimed; cited from earlier work
[4] = WHO adverse drug reactions VigiBase; ref Kumlien and Lundberg, 2010; cited from earlier work
[5] = seizure ADR frequency in SIDER; ref Campillos et al., 2008; Kuhn et al., 2010; cited from earlier work
[6] = test system: rat primary cortical neurons; experiment: MEA hazard scoring in rat primary cortical neuronal cultures; details: for hazard classification in the hazard scoring system: rat primary neurons on MEA; for Area.Under.Cross.Correlation Lower.TI / Area.Under.Cross.Correlation Upper.TI / Burst.Duration...Avg.(s. Lower.TI) / Burst.Duration...Avg.(s. Upper.TI) / Mean.Firing.Rate..Hz. Lower.TI / Mean.Firing.Rate..Hz. Upper.TI / Median.Mean.ISI Lower.TI / Median.Mean.ISI Upper.TI: statistical tolerance interval of the ΔΔ% effect, One-sided interval

| Molecule | Classification* (degree of seizure risk) [1] | Free Cmax highest [2] [nM] | FDA prescription information at therapeutic dose (Convulsion/ Seizure/Lower the seizure threshold/withdrawal) [3] | Percentage seizures of total number of ADRs [4] [%] | further results |
| --- | --- | --- | --- | --- | --- |
| Cc1ccc(COC(=O)N2CC[C@H](CNc3ncccn3)[C@H](F)C2)cc1 [Rislenemdaz (CERC-301), Rislenemdaz] | Risk | 4 | – | – | – |
| CCN1C(=O)OC(C)(C)C1=O [Ethadione] | Risk | – | – | – | – |
| FC(F)(F)c1ccc(CNc2ccc(Cc3c[nH]c4ncc(Cl)cc34)cn2)cn1 [Pexidartinib] | Risk | 100 | not found on label | 0.5386 | – |
| NC(CCP(=O)(O)O)C(=O)O [L-AP 4] | Risk | – | – | – | – |
| COc1cc(C(C)=O)ccc1OCCCN1CCC(c2noc3cc(F)ccc23)CC1 [Iloperidone] | Low risk | 12 | not found on label | 1.653 | SIDER ADR on-/off-label [5]: not found on label |
| O=C1c2ccccc2C(Cc2ccncc2)(Cc2ccncc2)c2ccccc21 [XE-991] | Risk | – | – | – | – |
| O=C1NC(=O)C(c2ccccc2)(c2ccccc2)N1 [Phenytoin] | – | 8127 | On label | 8.075 | SIDER ADR on-/off-label [5]: infrequent (0.1-1%); hazard classification in the hazard scoring system [6]: hazards; also recorded: high hazard |
| Nc1nnc(-c2cccc(Cl)c2Cl)c(N)n1 [Lamotrigine] | Risk | 8600 | On label | 7.325 | SIDER ADR on-/off-label [5]: 1.9% - 4% |
| COC(=O)C1=C(C)NC(C)=C([N+](=O)[O-])C1c1ccccc1C(F)(F)F (stereo not drawn) [BayK 8644] | No risk | – | – | – | – |
| C[C@](N)(Cc1ccc(O)c(O)c1)C(=O)O [Methyldopa] | – | 3300 | not found on label | 0.1002 | SIDER ADR on-/off-label [5]: not found on label; hazard classification in the hazard scoring system [6]: high hazard |
| COc1ccc(COc2ccc(Cc3cnc(N)nc3N)cc2OC)cc1 [GW-2580] | Risk | – | – | – | – |
| CN(C)CCC=C1c2ccccc2CCc2ccccc21 [Amitriptyline] | – | 173 | not found on label | 1.447 | SIDER ADR on-/off-label [5]: no frequency information; Area.Under.Cross.Correlation Lower.TI [6]: -100; Area.Under.Cross.Correlation Upper.TI [6]: -28.75; Burst.Duration...Avg.(s. Lower.TI) [6]: -100; Burst.Duration...Avg.(s. Upper.TI) [6]: 2740; Mean.Firing.Rate..Hz. Lower.TI [6]: -100; Mean.Firing.Rate..Hz. Upper.TI [6]: -25.19; Median.Mean.ISI Lower.TI [6]: -60.49; Median.Mean.ISI Upper.TI [6]: 9.96 |
| Cc1ccc(-c2cc(C(F)(F)F)nn2-c2ccc(S(N)(=O)=O)cc2)cc1 [Celecoxib] | – | 410 | not found on label | 0.3553 | SIDER ADR on-/off-label [5]: not found on label; hazard classification in the hazard scoring system [6]: high hazard |
| CNC(=O)c1cc(Oc2ccc3nc(N[C@@H]4CCCC[C@H]4O)sc3c2)ccn1 [Sotuletinib] | Risk | – | – | – | – |
| NS(=O)(=O)c1cc2c(cc1Cl)NC(C1CC3C=CC1C3)NS2(=O)=O (stereo not drawn) [Cyclothiazide] | Risk | 3000 | – | 0 | – |
| N[C@@]1(C(=O)O)CC[C@H]2[C@H](C(=O)O)[C@H]21 [Eglumetad (LY354740), Eglumetad] | Risk | – | – | – | – |
| C1CCc2nnnn2CC1 [Pentylenetetrazole] | Risk | – | – | – | – |
| NN [Hydrazine] | Risk | – | – | – | – |
| CCN(CC)CCCC(C)Nc1c2ccc(Cl)cc2nc2ccc(OC)cc12 (stereo not drawn) [Quinacrine] | No risk | 130 | not found on label | 1.17 | – |
| Tertiapin | Low risk | – | – | – | – |
| [Br-].[K+] [Potassium bromide] | No risk | – | not found on label | 4.831 | – |
| Cc1cc2c(s1)Nc1ccccc1N=C2N1CCN(C)CC1 [Olanzapine] | No risk | – | – | – | – |
| CN1[C@@H]2CC[C@H]1C[C@@H](OC(=O)c1c[nH]c3ccccc13)C2 [Tropisetron] | No risk | 80 | – | 1.067 | SIDER ADR on-/off-label [5]: not found on label |
| CS(=O)(=O)c1ccc(C2=C(c3ccccc3)C(=O)OC2)cc1 [Rofecoxib] | No risk | 130 | – | 1.2136 | SIDER ADR on-/off-label [5]: not found on label |
| CCCCCCOc1nsnc1C1=CCCN(C)C1 [Xanomeline] | Risk | – | – | – | – |
| Cn1c(=O)c2c(ncn2C)n(C)c1=O [Caffeine] | – | 23300 | – | – | Area.Under.Cross.Correlation Lower.TI [6]: 6.336; Area.Under.Cross.Correlation Upper.TI [6]: 111.5; Burst.Duration...Avg.(s. Lower.TI) [6]: -5.73; Burst.Duration...Avg.(s. Upper.TI) [6]: 16.22; Mean.Firing.Rate..Hz. Lower.TI [6]: 8.914; Mean.Firing.Rate..Hz. Upper.TI [6]: 94.17; Median.Mean.ISI Lower.TI [6]: -1.251; Median.Mean.ISI Upper.TI [6]: 10.27 |
| O=C1C[C@@H]2OCC=C3CN4CC[C@]56c7ccccc7N1[C@H]5[C@H]2[C@H]3C[C@H]46 [Strychnine] | Risk | – | – | 0 | – |
